The numbers were not newly measured in US11938224B1, “Benzonatate modified release solid tablets and capsules” (Tris Pharma, Inc., priority 2016, dated 2024), which cites them from elsewhere.

For the data set the following is noted: room temperature, oily liquid.

Regarding `CCCCNc1ccc(C(=O)OCCOCCOCCOCCOCCOCCOCCOCCOCCOC)cc1` [Benzonatate, 2-[2-[2-[2-[2-[2-[2-[2-(2-methoxyethoxy)ethoxy]ethoxy]ethoxy]ethoxy]ethoxy]ethoxy]ethoxy] ethyl-4-butylaminobenzoate], the solubility in water result was “water soluble”.
